For data set [1] the following is noted: 101 kPa, Liquid, Vibrating tube method.
Data set [2] in a line: xn = mol fraction of the nth substance listed. To be noted: 101 kPa, Liquid, Vibrating tube method, x2 = 0.333.

Numbers after ± are expanded uncertainties.

On to `CO` [methanol], for which the mass density in data set [1] (293.15 K) is listed as 792.6 ± 2 kg/m3; in data set [1] (303.15 K), 783 ± 2 kg/m3; in data set [1] (313.15 K), 773.5 ± 2 kg/m3; in data set [1] (323.15 K) it was 764 ± 2 kg/m3.

Consider `NC(N)=O` [urea] + C[N+](C)(C)CCO.[Cl-], for which the mass density worked out at 1199.7 ± 2 kg/m3 in data set [2] (293.15 K), 1194.2 ± 2 kg/m3 in data set [2] (303.15 K), 1188.6 ± 2 kg/m3 in data set [2] (313.15 K) and 1183.2 ± 2 kg/m3 in data set [2] (323.15 K).

One may read the mass density as the mass of a sample divided by its volume.

The values are drawn from the NIST ThermoML archive (doi:10.1016/j.jct.2018.04.010).
